From ChEMBL document CHEMBL3400004, “Novel fused tetrathiocines as antivirals that target the nucleocapsid zinc finger containing protein of the feline immunodeficiency virus (FIV) as a model of HIV infection” (Bioorg Med Chem Lett, 2015) come the findings set out here.

pEC50: −log10 of the molar value. A value given as a limit tells only on which side of the number the result lay.

Series [1] can be described thus: Cytotoxicity against cat CRFK cells assessed as cell viability at 10 uM after 24 hrs by MTT assay. The class given is cell-based, Felis catus. Particulars: read-out: Activity. In general terms: Formazan colour is commonly taken as a measure of viable cells.
The test system of series [2] is Feline immunodeficiency virus. Description: Antiviral activity against Feline immunodeficiency virus infected in cat FL-4 cells assessed as inhibition of viral replication after 7 days by quantitative RT-PCR analysis. It is filed as functional, organism-based. Particulars: FL-4, 168 h.
The nature of series [3]: Cytotoxicity against IL2-independent cat FL-4 cells assessed as reduction in cell viability after 7 days by MTT assay. The class given is cell-based, Felis catus. Particulars: IL2-independent FL-4 cells.
A short description of series [4]: Therapeutic index, ratio of CC50 for cat FL-4 cells to EC50 for Feline immunodeficiency virus infected in cat FL-4 cells. The class given is cell-based. Particulars: read-out: Ratio CC50/EC50.

In general, pEC50 refers to −log10 of the EC50, conventionally taken in molar units. In general, CC50 refers to the concentration at which the toxic effect on the cells reaches its halfway point. For the molecule `CCN(CC)c1sc(N(CC)CC)c2c1SSc1c(N(CC)CC)sc(N(CC)CC)c1SS2`, in series [1], the viability at 24 h, 10 µM is over 100%. Besides, in series [2], the pEC50 is under 4.00. Further, in series [3], the half-maximal cytotoxic concentration (CC50) at 168 h is over 100 µM. The selectivity ratio in series [4] was determined as 1.
The like results for `CCn1c(Cl)c2c(c1Cl)SSc1c(c(Cl)n(CC)c1Cl)SS2` were, in that order, over 100%, under 4.00, over 100 µM and 1.
The like results for `CC(C)(C)n1cc2c(c1)SSc1cn(C(C)(C)C)cc1SS2` were, in that order, over 100%, 4.84, over 100 µM and over 6.9.
In the same order, the values of `c1c2c(cc3c1SSc1cc4c(cc1SS3)OCCO4)OCCO2` are 91.1%, 7.16, over 100 µM and over 1450.
As for `Cc1cn([C@H]2C[C@H](N=[N+]=[N-])[C@@H](CO)O2)c(=O)[nH]c1=O` [ZIDOVUDINE], the viability at 24 h, 10 µM in series [1] is over 100%. The CC50 at 168 h in series [3] was over 100 µM. Besides, the selectivity ratio in series [4] is over 18.8.
Take `Cc1nnc(C(=O)NC(C)(C)c2nc(C(=O)NCc3ccc(F)cc3)c(O)c(=O)n2C)o1` [RALTEGRAVIR]: in series [1], the viability at 24 h, 10 µM is over 100%. The cytotoxic concentration (CC50) at 168 h in series [3] is over 100 µM. Moreover, the selectivity ratio in series [4] is over 10000.
For `COc1cc2c(cc1OC)SSc1cc(OC)c(OC)cc1SS2`, in series [1], the viability at 24 h, 10 µM was determined as 75.3%. The pEC50 in series [2] was 7.51. In series [3], the half-maximal cytotoxic concentration (CC50) at 168 h is over 100 µM. In addition, in series [4], the selectivity ratio was over 3240.
For the molecule `CCn1c(C)c2c(c1C)SSc1c(c(C)n(CC)c1C)SS2`, in series [1], the viability at 24 h, 10 µM was over 100%. In addition, the pEC50 in series [2] is 4.22. The CC50 at 168 h in series [3] was over 100 µM. Also, in series [4], the selectivity ratio was determined as 1.6.
Turning to `Cn1c(Cl)c2c(c1Cl)SSc1c(c(Cl)n(C)c1Cl)SS2`, the viability at 24 h, 10 µM in series [1] was over 100%. The pEC50 in series [2] was 6.69. Besides, the cytotoxic concentration (CC50) at 168 h in series [3] is over 100 µM. In addition, the selectivity ratio in series [4] is over 489.
The like results for `c1c2c(cc3c1SSc1cc4c(cc1SS3)OCO4)OCO2` were, in that order, 77%, 7.03, 5.79 µM and 62.1.
As for `Cc1c2c(c(C)n1Cc1ccccc1)SSc1c(c(C)n(Cc3ccccc3)c1C)SS2`, the viability at 24 h, 10 µM in series [1] was over 100%. Besides, in series [2], the pEC50 was 5.51. Further, in series [3], the half-maximal cytotoxic concentration (CC50) at 168 h was determined as 58.2 µM. Besides, the selectivity ratio in series [4] came out at 18.9.
In the same order, the values of `Cn1c2c(c3ccccc31)SSc1c(c3ccccc3n1C)SS2` are over 100%, 7.37, over 100 µM and over 2330.
